Laboratory results from patent US9445596B2, “Small molecule compounds for the control of nematodes” (California Institute of Technology, priority 2011, dated 2016).
Entries after “also recorded” stand apart in the source; their conditions may differ.

Tests used:
[1] = test system: C. elegans hermaphrodites and males; conditions: cited from earlier work
C. elegans males = experiment: Attraction assay (long-range, point source); type: in vivo; conditions: point source on 10 cm plate
Protocol: 10 cm standard chemotaxis plates were prepared (Bargmann et al., Cell 74:515-27 (1993), which is hereby incorporated by reference in its entirety) and stored at 4° C. until the day before use. Standard 1 cm-diameter copper pipes were sectioned into 1 cm-tall segments to use for the holding chambers. The females/hermaphrodites were isolated overnight, washed 3 times in M9 buffer, and then allowed to wander on a plate pre-conditioned with 50 uL of 1000× streptomycin for 2 hours to kill any bacteria that might produce a false positive attractant. The nematodes were then washed 3 times, and the supernatant from the last wash was placed in a copper chamber, as the control, 1 cm from the border of the 10 cm plate. The nematodes were suspended in M9 within the copper chamber, 1 cm from the border opposite the control chamber. After 6 hours, they were subsequently removed and replaced with 3 μL of 1M sodium azide. 100 C. elegans adult males were isolated overnight, washed several times in ddH2O, and placed at the center of the agar plate. After several hours, males paralyzed within 2 cm of each region were scored. The Chemotaxis Index (Bargmann et al., Cell 74:515-27 (1993), which is hereby incorporated by reference in its entirety) was then used to score male chemotaxis to either point source.

C. elegans = conditions: shown previously; cited from earlier work
[2] = test system: several of the tested nematode species; experiment: Retention assay, several nematode species; type: in vivo; conditions: 1 nM, 1 μM and 1 mM tested
Protocol: OP50 E. coli was grown on a standard 5 cm agar plate (made with standard Nematode Growth Medium). The bacterial lawn was 16 mm in diameter and was grown overnight at 20° C. before being used in trials. Two 4 mm spots (0.6 μL) were placed on opposite sides of the bacterial lawn (using a transparent template to guide spot placement), and several minutes elapsed for the liquid to settle in before placing nematodes down on the assay. Recording began immediately upon worm placement. 0.6 μL of the control was placed on one side of the lawn, and 0.6 μL of the experimental cue was placed on the other side of the lawn, changing the location of the cue throughout trials between left/right and top/bottom to avoid bias.
Nematodes were isolated by gender at the L4 stage the day before being used in trials as developed adults. Worms were evenly divided and placed at two points equidistant from the foci of the scoring region. Trials were recorded for 20 minutes, and frames were collected for analysis at 1 frame per second. Results were averaged from at least three different trials. For every nematode species in this study, a different total number of worms (using water in both scoring regions) was tested to determine the minimum number of worms necessary for consistent unbiased results over a 20 minute trial. The total number of worms used in the multiple species assays depended on that species' optimal parameters. 10 worms were used for P. redivivus males and females, 20 worms were used for C. elegans males and O. dolichuridae males, and 14 worms were used for S. glaseri males. The Automated Software was used to compare worm occupancy in each scoring region over time, and the Chemotaxis Index (Bargmann et al., Cell 74:515-27 (1993), which is hereby incorporated by reference in its entirety) was adapted to score preference or avoidance to each ascaroside.
A video camera attached to the microscope produced a digital video stream, which was then analyzed. The ratio of the time the average worm spent in each region of interest was calculated for every trial. For ease of implementation, all worms in a single experiment were assumed to be roughly the same size. Thus worm pixels were counted instead of whole worms, allowing fractions of a worm in the region of interest to be taken into account. It also eliminated the need for a shape-based worm identification algorithm, and allowed each frame to be analyzed independently. A band-pass filter was applied to each frame to eliminate the effect of uneven lighting and also accentuate the worms against the background. The worm was then identified after thresholding the filtered image. Throughout each experiment, the locations and sizes of the regions of interest were known. Through the filtering described above, it is known which pixels are occupied by worms and which ones are not. Thus, the ratio of worm-pixels to all pixels inside the region of interest can be calculated to produce the worm-occupancy ratio. This calculation was done for every frame, giving a plot output of worm-occupancy ratio vs. time for each region.

[3] = test system: P. pacificus strain RSB020; experiment: Mouth-form dimorphism assay; type: in vivo, Pristionchus pacificus
Protocol: Mouth-form dimorphism assays were performed using P. pacificus strain RSB020. The synthetic compounds dissolved in ethanol (0.5 mM) were diluted with water to make 100 μl solution and subsequently added to 3 mL NGM-agar (1 μM final concentration). The assay plates were seeded with 50 μl OP50 culture in LB medium and incubated overnight at 20° C. to allow bacterial growth. Each replicate included the progeny of two mothers, which were picked as adult hermaphrodites of a consistent age (carrying 4-6 eggs) and which were all from the same P. pacificus culture plate. Following the placement of mothers on assay plates, plates were kept at 20° C. for six days, such that the entire broods were adults at the time of screening. A random sample of 50 hermaphrodite progeny was screened per plate. All animals were screened by differential interference contrast (DIC) microscopy on a Zeiss Axiskop. The following discrete characters were used to discriminate eurystomatous from stenostomatous individuals, respectively: (1) claw-shaped vs. flint-shaped (i.e. dorsoventrally symmetrical) dorsal tooth; (2) presence vs. absence of a subventral tooth; (3) strongly vs. weakly sclerotized stomatal walls. No intermediate mouth-forms were observed. Experiments were conducted in triplicate for each treatment. In assays of responses to compounds of several concentrations (1, 0.3, 0.1, 0.03, 0.01 μM final concentrations), experiments were performed as described above, with the following modifications. To allow greater resolution of responses to lower concentrations, 60 randomly screened individuals in each of five replicates per concentration per compound were assayed. All concentration-curve experiments were performed in parallel using mothers picked randomly from the same two source populations. To prepare large numbers of individual mothers for these experiments, source populations were established from virgin hermaphrodites to constrain the presence of males and were conditioned to well-fed and ambient conditions for at least one generation before mothers were picked for the assays.

P. pacificus = experiment: Dauer formation assay; type: in vivo, Pristionchus pacificus; conditions: synthetic samples; first assayed at 1 μM
Protocol: Dauer formation assays were performed as described in Ogawa et al., Curr. Biol. 19:67-71 (2009), which is hereby incorporated by reference in its entirety, using heat- or kanamycin-killed E. coli OP50. Synthetic compounds were dissolved in ethanol (0.5 mM, stock solution) and combined with water to make a […] and subsequently added to 3 mL NGM-agar without peptone ([…], 0.3, 0.1 μM final concentrations).

[4] = test system: C. elegans hermaphrodites; experiment: Quadrant chemotaxis assay; type: in vivo; conditions: see FIGS. 48A-B (spot attraction and quadrant chemotaxis assays); wild-type hermaphrodites
Protocol: Chemotaxis to both non-indole and indole ascarosides was assessed on 10 cm four-quadrant petri plates (Wicks et al., Dev. Biol. 221:295-307 (2000), which is hereby incorporated by reference in its entirety). Each quadrant was separated from adjacent ones by plastic spacers (FIG. 1B). Pairs of opposite quadrants were filled with nematode growth medium (NGM) agar containing either indole ascarosides or non-indole ascarosides at different concentrations. Animals were washed gently in a S-basal buffer, placed in the center of a four-quadrant plate with ascarosides in alternating quadrants, and scored after 15 minutes and 30 minutes. A chemotaxis index was calculated as: (the number of animals on ascaroside quadrants minus the number of animals on buffer quadrants)/(total number of animals).
Chemotaxis to hbas#3 was assessed on 10 cm four-quadrant petri plates (Wicks et al., Dev. Biol. 221:295-307 (2000), which is hereby incorporated by reference in its entirety). Each quadrant was separated from adjacent ones by plastic spacers. Pairs of opposite quadrants were filled with nematode growth medium (NGM) agar containing different concentrations of hbas#3. Animals were washed gently in an S-basal buffer and placed in the center of a four-quadrant plate with ascarosides in alternating quadrants, and scored after 15 minutes and 30 minutes. A chemotaxis index was calculated as: (the number of animals on ascaroside quadrants minus the number of animals on buffer quadrants)/(total number of animals).

[5] = test system: C. elegans hermaphrodites and males; experiment: Spot attraction assay; type: in vivo
Protocol: The spot attraction assays were conducted according to a previously reported method (Pungaliya et al., PNAS 106:7708-13 (2009); Srinivasan et al., Nature 454:1115-18 (2008), which are hereby incorporated by reference in their entirety). For both C. elegans hermaphrodites and males, 50-60 worms were harvested daily at the fourth larval stage (L4) and stored segregatedly by sex at 20° C. overnight, to be used as young adults the following day. For the competition experiments, two conditions were used: 120 nM ascr#3 and 10 nM icas#3 (Condition 1), or 12 μM ascr#3 and 1 μM icas#3 (Condition 2) in water containing 10% ethanol. Aliquots were stored at −20° C. in 20 μL tubes. 10% ethanol in water was used as control.
Attraction assays with hbas#3 were conducted as previously reported (Srinivasan et al., Nature 454:1115-18 (2008); Pungaliya et al., Proc. Natl. Acad. Sci. U.S.A. 106:7708-13 (2009), which are hereby incorporated by reference in their entirety). For the attraction assays, 50-60 hermaphrodite worms were harvested daily at the early fourth larval stage (L4) and stored at 20° C. overnight to be used as young adults the following day. Hbas#3 was dissolved in water containing 10% ethanol. Aliquots were stored at −20° C. in 20 μL tubes. 10% ethanol in water was used as control.

[6] = literature (Pungaliya 2009; Srinivasan 2008)
[7] = synthetic samples, first assayed at 1 μM

## CC1O[C@@H](O[C@H](C)CCCC/C=C/C(=O)O)[C@@H](O)C[C@H]1O (stereo partly shown) [ascr#3]
[1]; from 1 μM concentration, previous study (Srinivasan 2008)
  most active amount for attraction in C. elegans: ~1 pmol
[1]; high dauer-inducing concentrations, previous studies
  response of social and solitary hermaphrodites: strongly deter
[1]; [6]
  attraction of males: strongly attracts males
  response of hermaphrodites: repels hermaphrodites
C. elegans males
  lowest amount eliciting male attraction (as low as): 5 femtomol
  male attraction from a distance / chemotaxis towards a point source: chemotax towards
C. elegans
  promotion of dauer entry: individually promote dauer entry
[2]
  preference for areas conditioned by the ascaroside: preferred

## C[C@H](CC/C=C/C(=O)O)O[C@@H]1O[C@@H](C)[C@H](O)C[C@H]1O [ascr#7]
[2]
  preference for areas conditioned by the ascaroside: preferred

## C[C@H](CCCCC(=O)O[C@@H]1C[C@@H](O)[C@H](O[C@H](C)CCCCC(=O)O)O[C@H]1C)O[C@@H]1O[C@@H](C)[C@H](O)C[C@H]1O [dasc#1, (R)-6-(((2R,3R,5R,6S)-5-(((R)-6-(((2R,3R,5R,6S)-3,5-dihydroxy-6-methyltetrahydro-2H-pyran-2-yl)oxy)heptanoyl)oxy)-3-hydroxy-6-methyltetrahydro-2H-pyran-2-yl)oxy)heptanoic acid]
[3]; [7]
  induction of the eurystomatous mouth form: regulates adult morphology; also recorded: strongly induce the eurystomatous mouth form
P. pacificus
  dauer induction: inactive in the dauer formation assay

## C[C@H](CCCC/C=C/C(=O)O)O[C@@H]1O[C@@H](C)[C@H](OC(=O)c2ccc(O)cc2)C[C@H]1O [hbas#3, (8R)-(3′R-Hydroxy-5′R-(4-hydroxybenzoyloxy)-6′S-methyl-(2H)-tetrahydropyran-2′-yloxy)non-(2E)-enoic acid]
[4]
  lowest concentration with strong attraction of C. elegans (as low as): 10 femtomolar
[5]; wild-type (N2) hermaphrodites, dose dependent manner
  attraction in the spot attraction assay: attracted

## C[C@H](CCCCC(=O)O)O[C@@H]1O[C@@H](C)[C@H](OC(=O)c2c[nH]c3ccccc23)C[C@H]1O [icas#1]
[5]; 1 pmol, N2 hermaphrodites and him-5 males
  attraction in the spot attraction assay: attractive to both C. elegans sexes
[5]; high concentrations, males and hermaphrodites
  attraction in the spot attraction assay: attracted both males and hermaphrodites

## C[C@H](CCC(=O)O[C@H](C)[C@H](NC(=O)Nc1ncnc2c1ncn2[C@@H]1OC[C@@H](O)[C@H](O)[C@H]1O)C(=O)O)O[C@@H]1O[C@@H](C)[C@H](O)C[C@@H]1O [npar#1, (2S,3R)-3-(((R)-4-(((2R,3S,5R,6S)-3,5-dihydroxy-6-methyltetrahydro-2H-pyran-2-yl)oxy)pentanoyl)oxy)-2-(3-(9-((2R,3R,4S,5R)-3,4,5-trihydroxytetrahydro-2H-pyran-2-yl)-9H-purin-6-yl)ureido)butanoic acid]
[3]; high concentrations
  induction of the eurystomatous mouth form: weaker induction of the eurystomatous mouth form
P. pacificus
  dauer induction: induces dauer arrest; also recorded: strongly induced dauer formation

## C[C@H](CCC(=O)O[C@@H](CNC(=O)CCC(=O)O)c1ccccc1)O[C@@H]1O[C@@H](C)[C@H](O)C[C@H]1O [pasc#9, 4-(((R)-2-(((R)-4-(((2R,3R,5R,6S)-3,5-dihydroxy-6-methyltetrahydro-2H-pyran-2-yl)oxy)pentanoyl)oxy)-2-phenylethyl)amino)-4-oxobutanoic acid]
[3]; high concentrations
  induction of the eurystomatous mouth form: weaker induction of the eurystomatous mouth form

## C[C@H](CCC(=O)O)O[C@@H]1O[C@@H](C)[C@H](OC(=O)[C@H](C)CNC(N)=O)C[C@H]1OC(=O)CCCCO[C@@H]1O[C@@H](C)[C@H](O)C[C@H]1O [ubas#1, (R)-4-(((2R,3R,5R,6S)-3-((5-(((2R,3R,5R,6S)-3,5-dihydroxy-6-methyltetrahydro-2H-pyran-2-yl)oxy)pentanoyl)oxy)-6-methyl-5-(((R)-2-methyl-3-ureidopropanoyl)oxy)tetrahydro-2H-pyran-2-yl)oxy)pentanoic acid]
[3]; [7]
  induction of the eurystomatous mouth form: inactive
